From publication PMC12583704 (Signal Transduction and Targeted Therapy, 2025)
Values joined by “and” are separate entries in the source; they are usually repeats but may differ in a detail not shown here. Equal entries are not always repeated.

Experiment: Phase 1 study NCT03594422: adverse events graded by NCI CTCAE v4.03
Type: in vivo, human
Description: Part 1 was a dose-escalation study to determine the recommended phase 2 dose (RP2D) in solid tumors. […] The initial design was a 3 + 3 dose escalation from 20 mg, but the protocol was amended to randomly enroll and assign patients to starting doses of 30, 40, and 50 mg on the basis of safety data acquired in the CML trial.[20] […] An interactive web response system was used for randomization. Part 2 was a nonrandomized study focusing on patients with SDH-deficient GISTs. […] On the basis of preliminary data from adult patients, adolescent patients with advanced wild-type GISTs were also included in Part 2. The dosage for adolescents was adjusted according to their body weights.
AEs were evaluated at each follow-up visit: on Days 1, 8, 15, and 22 during Cycles 1 and 2; and on Days 1 and 15 in Cycle 3 and all subsequent cycles, up to 30 days after the final dose. All AEs were graded according to the National Cancer Institute Common Terminology Criteria for Adverse Events v4.03. Clinical laboratory investigations for routine blood examinations and serum chemistry parameters were performed during every cycle (on Day 1), during Cycles 1 and 2 (on Days 8, 15, and 22), and 30 days after the last dose of treatment. Urinalysis, coagulation, cardiac troponin I/T, lipase, amylase, and electrocardiographic evaluations were conducted at baseline; during Cycles 1 and 2 (on Days 1 and 15); during Cycles 3, 5, 7, and 9; every three cycles after Cycle 9 (on Day 1); and 14 days after the last dose of treatment. All patients underwent tumor imaging for response assessment via computed tomography or magnetic resonance imaging at screening and every two cycles (8 weeks) until progression or discontinuation. Target and nontarget lesions were assessed per the Response Evaluation Criteria in Solid Tumors version 1.1 (RECIST v1.1).

Cc1ccc(C(=O)Nc2ccc(CN3CCN(C)CC3)c(C(F)(F)F)c2)cc1C#Cc1cnc2[nH]ncc2c1 [Olverembatinib, 3-[(1H-pyrazolo[3,4-b]pyridin-5-yl)ethynyl]-4-methyl-N-{4-[(4-methylpiperazin-1-yl)methyl]-3-(trifluoromethyl)phenyl]benzamide]
TRAE: Hypoalbuminemia (50 mg (n = 16), Grade 3-5): 0 n (%)
TRAE: Leukocyte count increased (50 mg (n = 16), Grade 3-5): 0 n (%)
TRAE: Melanocytic nevus (50 mg (n = 16), Grade 3-5): 0 n (%)
TRAE: Neutrophil count increased (50 mg (n = 16), Grade 3-5): 0 n (%)
TRAE: Platelet count increased (50 mg (n = 16), Grade 3-5): 0 n (%)
TRAE: Pyrexia (50 mg (n = 16), Grade 3-5): 0 n (%)
TEAE: Abdominal pain (Total (n = 66), Any grade): 15 (22.7) n (%)
TEAE: Alanine aminotransferase increased (Total (n = 66), Any grade): 25 [37.9%] n (%) and 25 (37.9) n (%)
TEAE: Anemia (Total (n = 66), Any grade): 31 [47.0%] n (%) and 31 (47.0) n (%)
TEAE: Aspartate aminotransferase increased (Total (n = 66), Any grade): 31 [47%] n (%) and 31 (47.0) n (%)
TEAE: C-reactive protein increased (Total (n = 66), Any grade): 15 (22.7) n (%)
TEAE: Constipation (Total (n = 66), Any grade): 27 [40.9%] n (%) and 27 (40.9) n (%)
TEAE: Fatigue (Total (n = 66), Any grade): 20 [30.3%] n (%) and 20 (30.3) n (%)
TEAE: Hyperuricemia (Total (n = 66), Any grade): 31 (47.0) n (%)
TEAE: Hypoalbuminemia (Total (n = 66), Any grade): 14 (21.2) n (%)
TEAE: Leukocyte count increased (Total (n = 66), Any grade): 32 [48.5%] n (%) and 32 (48.5) n (%)
TEAE: Melanocytic nevus (Total (n = 66), Any grade): 17 (25.8) n (%)
TEAE: Neutrophil count increased (Total (n = 66), Any grade): 25 [37.9%] n (%) and 25 (37.9) n (%)
TEAE: Pyrexia (Total (n = 66), Any grade): 28 [42.4%] n (%) and 28 (42.4) n (%)
TEAEs (Total (n = 66), Any grade): 66 (100.0%) n (%) and 66 (100.0) n (%)
TRAE: ALT increased (Total (n = 66), Any grade): 20 (30.3) n (%)
TRAE: AST increased (Total (n = 66), Any grade): 23 (34.8) n (%)
TRAE: Anemia (Total (n = 66), Any grade): 9 (13.6) n (%)
TRAE: Blood creatinine increased (Total (n = 66), Any grade): 9 (13.6) n (%)
TRAE: Constipation (Total (n = 66), Any grade): 23 (34.8) n (%)
TRAE: Fatigue (Total (n = 66), Any grade): 18 (27.3) n (%)
TRAE: Hypoalbuminemia (Total (n = 66), Any grade): 10 (15.2) n (%)
TRAE: Leukocyte count increased (Total (n = 66), Any grade): 27 (40.9) n (%)
TRAE: Melanocytic nevus (Total (n = 66), Any grade): 15 (22.7) n (%)
TRAE: Neutrophil count increased (Total (n = 66), Any grade): 22 (33.3) n (%)
TRAE: Platelet count increased (Total (n = 66), Any grade): 7 (10.6) n (%)
TRAE: Pyrexia (Total (n = 66), Any grade): 19 (28.8) n (%)
TEAE: Abdominal pain (Total (n = 66), Grade 3-5): 1 (1.5) n (%)
TEAE: Alanine aminotransferase increased (Total (n = 66), Grade 3-5): 2 (3.0) n (%)
TEAE: Anemia (Total (n = 66), Grade 3-5): 4 (6.1) n (%)
TEAE: Aspartate aminotransferase increased (Total (n = 66), Grade 3-5): 2 (3.0) n (%)
TEAE: C-reactive protein increased (Total (n = 66), Grade 3-5): 0 n (%)
TEAE: Constipation (Total (n = 66), Grade 3-5): 0 n (%)
TEAE: Fatigue (Total (n = 66), Grade 3-5): 1 (1.5) n (%)
TEAE: Hyperuricemia (Total (n = 66), Grade 3-5): 1 (1.5) n (%)
TEAE: Hypoalbuminemia (Total (n = 66), Grade 3-5): 0 n (%)
TEAE: Leukocyte count increased (Total (n = 66), Grade 3-5): 0 n (%)
TEAE: Melanocytic nevus (Total (n = 66), Grade 3-5): 0 n (%)
TEAE: Neutrophil count increased (Total (n = 66), Grade 3-5): 0 n (%)
TEAE: Pyrexia (Total (n = 66), Grade 3-5): 0 n (%)
TEAEs (Total (n = 66), Grade 3-5): 26 (39.4) n (%)
TRAE: ALT increased (Total (n = 66), Grade 3-5): 1 (1.5) n (%)
TRAE: AST increased (Total (n = 66), Grade 3-5): 1 (1.5) n (%)
TRAE: Anemia (Total (n = 66), Grade 3-5): 0 n (%)
TRAE: Blood creatinine increased (Total (n = 66), Grade 3-5): 0 n (%)
TRAE: Constipation (Total (n = 66), Grade 3-5): 0 n (%)
TRAE: Fatigue (Total (n = 66), Grade 3-5): 1 (1.5) n (%)
TRAE: Hypoalbuminemia (Total (n = 66), Grade 3-5): 0 n (%)
TRAE: Leukocyte count increased (Total (n = 66), Grade 3-5): 0 n (%)
TRAE: Melanocytic nevus (Total (n = 66), Grade 3-5): 0 n (%)
TRAE: Neutrophil count increased (Total (n = 66), Grade 3-5): 0 n (%)
TRAE: Platelet count increased (Total (n = 66), Grade 3-5): 0 n (%)
TRAE: Pyrexia (Total (n = 66), Grade 3-5): 0 n (%)
patients who experienced grade ≥3 TRAEs (all 66 patients): 13.6%
patients who experienced treatment-related AEs (TRAEs) (all 66 patients): 93.9%
treatment-related serious AEs (all 66 patients): 7.6%
Treatment-related SAE (all patients, Population, N 68): 5 (7.4) n (%)
Treatment-related SAE: Anemia (all patients, Population, N 68): 1 (1.5) n (%)
Treatment-related SAE: Arteriosclerosis coronary artery (all patients, Population, N 68): 1 (1.5) n (%)
Treatment-related SAE: Intestinal obstruction (all patients, Population, N 68): 2 (2.9) n (%)
Treatment-related SAE: Leukemoid reaction (all patients, Population, N 68): 1 (1.5) n (%)
RP2D (based on safety data from a previous phase 1 study and randomization in Part 1): 40 mg QOD
treatment discontinuation because of AEs (in vivo): no patients discontinued treatment because of AEs
